Reference: patent US20100204258A1, “METHODS AND COMPOSITIONS FOR MODULATING INSULIN SECRETION AND GLUCOSE METABOLISM” (The Trustees of Columbia University in the City of New York, priority 2007, published 2010)
“Also recorded” adds a separate entry of the source.

Tests used:
Lewis rats [1] = test: IPGTT with TBZ, emetine and Compound 6 (FIG. 12); assay type: in vivo, rat; conditions: single dose 2-3 mg/kg body weight; for area under the curve from IPGTT: separate experiments
Procedure: Experimental animals. All animal studies were conducted as described in Example 1. […] Rats received injections of vehicle alone (10% DMSO in saline) or reserpine (in saline). Animals recovered fully before receiving IPGTT. Blood glucose, insulin, glucagon and intraperitoneal glucose tolerance tests measurements. […] The fasting blood glucose (BG) levels of the rats were measured using an Accu-Check blood glucose monitoring system (Roche Diagnostics, Sommerville, N.J.). Intraperitoneal glucose tolerance tests (IPGTT) were performed in 6 hour fasting un-anaesthetized animals. Briefly, after baseline BG measurements, animals received an intraperitoneal (i.p.) injection of 1 gram glucose/kilogram body weight. To minimize stress during the procedure, rats were handled by the same operator during acclimatization and later during weighing and IPGTT. Blood samples (approximately 30 μl) were collected at baseline and then again 15, 30, 45, 60, 90, and 120 minutes following i.p. glucose. BG concentrations were measured immediately on these samples and the remainder processed.

human islets = test: Glucose-stimulated insulin secretion of purified human cadaveric islets ex vivo; assay type: cell-based; conditions: stimulation by high concentrations of glucose
Procedure: Human islet tissue and glucose-stimulated insulin secretion. The islet tissue used in these studies was obtained with institutional review board approval. Pancreas digestion and islet isolation were performed using minor modifications of the Edmonton purification protocol. (Shapiro, […] al. “Islet […] in seven patients with type I diabetes mellitus using a glucocortoid-free immunosuppressive regimen.” New England Journal of Medicine 343(4):230-8, (2000)) The determination of islet cell mass, viability, and purity were also performed. Purified islets were cultured in CMRL 1066 culture media with 10% fetal bovine serum at 37° C. in humidified air (5% CO2) for 18 to 24 hours. The human islet insulin secretory response was performed according to a procedure described by the Edmonton group. (Id.) Briefly, after an overnight culture, islets were incubated with either low or high concentrations of glucose for 2 hours at 37° C. and 5% CO2. The supernatant was collected for insulin measurement. Insulin concentrations in these experiments were analyzed with a human insulin enzyme-linked immunosorbent assay (ELISA) kit (ALPCO Insulin ELISA kit, Windham, N.H.). In some experiments TBZ, DTBZ or epinephrine was added to the cultures before glucose stimulation.

Lewis rats [2] = test: IPGTT after 2 mg/kg i.v. of VMAT2 ligands (FIG. 10); assay type: in vivo, rat; conditions: 2 mg/kg body weight i.v.; for blood glucose levels during IPGTT: around sixty minutes following glucose challenge; for area under the curve in the IPGTT: following glucose challenge; for blood glucose excursion during IPGTT: vs vehicle (DMSO)
Procedure: Experimental animals. All animal studies were conducted as described in Example 1.
Anaesthetized rats were administered TBZ, THB, butamol, reserpine, emetine, or Compound 6 at a dose of approximately 2-3 mg/kg body weight by intravenous (i.v.) injection using the penile vein. TBZ, THB, butamol, reserpine, emetine, and Compound 6 were each separately dissolved in neat sterile dimethylsulfoxide (DMSO) and diluted (always more than 10 fold) in sterile saline. Rats received injections of vehicle alone (10% DMSO in saline) or reserpine (in saline). Animals recovered fully before receiving IPGTT.
(§1) Blood glucose, insulin, glucagon and intraperitoneal glucose tolerance tests measurements. Blood samples were collected from a superficial blood vessel in the tails of the rats following 6 hours of fasting between 12:00 noon and 2:00 p.m. The fasting blood glucose (BG) levels of the rats were measured using an Accu-Check blood glucose monitoring system (Roche Diagnostics, Sommerville, N.J.). Intraperitoneal glucose tolerance tests (IPGTT) were performed in 6 hour fasting un-anaesthetized animals. Briefly, after baseline BG measurements, animals received an intraperitoneal (i.p.) injection of 1 gram glucose/kilogram body weight. To minimize stress during the procedure, rats were handled by the same operator during acclimatization and later during weighing and IPGTT. Blood samples (approximately 30 μl) were collected at baseline and then again 15, 30, 45, 60, 90, and 120 minutes following i.p. glucose. BG concentrations were measured immediately on these samples and the remainder processed.

Lewis rats [3] = test: Intraperitoneal glucose tolerance test (IPGTT) in normal Lewis rats after a single i.v. dose; assay type: in vivo, rat; conditions: 25 μg/gbm, single concentration; data not shown
Procedure: Experimental animals. All animal studies were reviewed and approved by the Institutional Animal Care and Use Committee (IACUC) at Columbia University's Medical School. All experiments were performed in accordance with the IACUC approved procedures. Normal male Lewis rats (100-400 grams) were obtained from Taconic (Taconic Inc., Germantown, N.Y.) and were housed under conditions of controlled humidity (55±5%), temperature (23±1° C.), and lighting (light on: 06.00-18.00 hours) with free access to standard laboratory rat chow and water. Rats were handled daily to minimize nonspecific stress for more than 7 days before the experiments began. In most experiments, it was necessary to measure blood glucose in fasting animals. For these groups, food was removed at the beginning of the light cycle, 6 hours before glucose levels were measured. Diabetes mellitus was induced by intraperitoneal injection of streptozotocin (Sigma Chemical Co., St. Louis, Mo.) (25 to 50 mg/kg) to animals (100 to 150 grams) that had been fasted 4 hours to enhance the effectiveness of STZ treatment.
The STZ solution was prepared fresh by dissolving it in 0.1 M citrate buffer (pH 5.5) and terminally sterile filtered. Control Lewis age and weight matched rats received a 0.5 ml/kg citrate vehicle alone via intraperitoneal injection. Sixty minutes prior to intraperitoneal glucose tolerance testing (IPGTT), anesthesia of male Lewis rats was induced with isoflurane (3-4% in oxygen) and maintained with 1-2% isoflurane in oxygen. Anaesthetized rats were administered TBZ at the indicated dose by intravenous (i.v.) injection using the penile vein. TBZ was dissolved in neat sterile dimethylsulfoxide (DMSO) and diluted (always more than 10 fold) in sterile saline. Rats received injections of vehicle alone (10% DMSO in saline) or reserpine (in saline). Animals recovered fully before receiving IPGTT.
as §1, with “30,” for “30, 45,”, “glucose administration.” for “glucose.”
Plasma was immediately separated by centrifugation at 3000×g for 15 minutes and then stored at −20° C. until analysis. Insulin and glucagon concentration measurements in rat plasma were performed by ELISA as per the manufacturer's instructions using kits from Linco Research Inc. (St. Charles, Mo.) and Alpco Diagnostics (Salem, N.H.), respectively. To validate the test, saline injections were performed by the same method. […] The area under the IPGTT glucose concentration×time curve (AUCIPGTT) was calculated by the trapezoidal rule. The area under the insulin or glucagon concentration×time curve (AUC INS or AUC GCG) was calculated in a similar manner.

Compound | blood glucose levels during IPGTT (Lewis rats [2]) | area under the curve in the IPGTT (Lewis rats [2]) | blood glucose excursion during IPGTT (Lewis rats [2]) | further results
COc1cc2c(cc1OC)C1CC(N)C(CC(C)C)CN1CC2 (stereo not drawn) [Compound 6, 3-isobutyl-9,10-dimethoxy-2,3,4,6,7,11b-hexahydro-1H-pyrido[2,1-a]isoquinolin-2-amine] | – | – | – | blood glucose excursion during IPGTT (Lewis rats [1]): consistently reduced the blood glucose excursion; area under the curve from IPGTT (Lewis rats [1]): depress the area under the curve; also recorded: consistently suppressed the area under the curve
COc1cc2c(cc1OC)[C@H]1C[C@@H](O)[C@H](CC(C)C)CN1CC2 [DTBZ, dihydrotetrabenazine] | – | – | – | insulin secreted by human islets in culture (human islets): enhances glucose-stimulated insulin secretion; also recorded: significantly enhanced
COc1ccc2c(c1OC)CN1CCc3cc4c(cc3C1C2)OCO4 (stereo not drawn) [THB, tetrahydroberberine] | returned to control or near normal levels | smaller area under the curve | reduced the blood glucose excursion | –
CC(C)(C)NCC(O)c1ccc(O)c(CO)c1 (stereo not drawn) [butamol] | returned to control or near normal levels | smaller area under the curve | does not reduce the blood glucose excursion; also recorded: did not reduce the blood glucose excursion | –
CC[C@H]1CN2CCc3cc(OC)c(OC)cc3[C@@H]2C[C@@H]1C[C@H]1NCCc2cc(OC)c(OC)cc21 [emetine] | returned to control or near normal levels | smaller area under the curve | reduced the blood glucose excursion | blood glucose excursion during IPGTT (Lewis rats [1]): consistently reduced the blood glucose excursion; area under the curve from IPGTT (Lewis rats [1]): consistently suppressed the area under the curve; area under the curve from IPGTT (Lewis rats [1]; listed as emitine): depress the area under the curve
CNC[C@H](O)c1ccc(O)c(O)c1 [epinephrine, L-epinephrine bitartrate] | – | – | – | insulin secreted by human islets in culture (human islets): inhibited secretion of insulin
COC(=O)[C@H]1[C@H]2C[C@@H]3c4[nH]c5cc(OC)ccc5c4CCN3C[C@H]2C[C@@H](OC(=O)c2cc(OC)c(OC)c(OC)c2)[C@@H]1OC [reserpine] | returned to control or near normal levels | smaller area under the curve | reduced the blood glucose excursion | AUC IPGTT relative to untreated controls (Lewis rats [3]): larger AUC IPGTT; blood glucose in IPGTT (Lewis rats [3]): persistent hyperglycemia
